Experimental data from paper PMC10011747, “Targeting androgen receptor and the variants by an orally bioavailable Proteolysis Targeting Chimeras compound in castration resistant prostate cancer” (eBioMedicine, 2023).
Like-named read-outs stand apart in the source and are kept apart here.

Columns and labels:
full-length AR [1] = target: T1, full-length AR (Homo sapiens, UniProt P10275, T878A); test: AR degradation by western blot in prostate cancer cell lines; format: cell-based; conditions: LNCaP cells; for DC50: 24 h treatment; for Dmax at 20 µM: maximum degradation at 20 μM
T1 construct: calculated based on normalized full-length AR and AR-V7 band intensity; endogenous in cells; host or cells: LNCaP, CWR22Rv1, VCaP
T1 sequence (P10275 1-920 T878A): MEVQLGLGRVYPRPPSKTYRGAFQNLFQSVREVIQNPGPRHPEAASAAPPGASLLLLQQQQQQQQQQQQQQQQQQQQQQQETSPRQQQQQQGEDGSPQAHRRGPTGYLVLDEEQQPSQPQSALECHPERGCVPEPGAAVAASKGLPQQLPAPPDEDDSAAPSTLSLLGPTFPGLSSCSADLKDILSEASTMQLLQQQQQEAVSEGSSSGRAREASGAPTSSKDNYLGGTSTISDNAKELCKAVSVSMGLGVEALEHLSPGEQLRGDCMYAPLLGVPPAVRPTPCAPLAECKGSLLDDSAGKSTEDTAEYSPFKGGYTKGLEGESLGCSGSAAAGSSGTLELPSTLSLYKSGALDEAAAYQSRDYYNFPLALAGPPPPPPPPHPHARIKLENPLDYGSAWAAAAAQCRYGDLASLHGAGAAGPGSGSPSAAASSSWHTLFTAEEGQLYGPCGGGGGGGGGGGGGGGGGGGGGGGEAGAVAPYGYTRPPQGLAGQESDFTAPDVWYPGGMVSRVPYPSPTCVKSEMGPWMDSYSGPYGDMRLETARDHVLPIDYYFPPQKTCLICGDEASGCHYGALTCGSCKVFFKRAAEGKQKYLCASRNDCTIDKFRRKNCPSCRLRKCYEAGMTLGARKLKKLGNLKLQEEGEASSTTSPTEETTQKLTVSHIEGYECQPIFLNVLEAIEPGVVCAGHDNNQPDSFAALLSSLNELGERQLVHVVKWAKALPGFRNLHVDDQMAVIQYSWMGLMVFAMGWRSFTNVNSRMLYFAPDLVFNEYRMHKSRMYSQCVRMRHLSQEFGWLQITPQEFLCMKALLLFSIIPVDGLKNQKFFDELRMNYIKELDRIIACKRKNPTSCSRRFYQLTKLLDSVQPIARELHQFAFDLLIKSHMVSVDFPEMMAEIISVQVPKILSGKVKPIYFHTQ
Experimental: (§1) To obtain total lysates, cells were lysed in RIPA buffer (50 mM Tris–HCl pH 8.0, 150 mM NaCl, 1% NP-40, 0.5% Na-deoxycholate, 0.5% SDS plus protease inhibitors). The lysates were resolved by SDS-polyacrylamide gel electrophoresis, and the protein expression was analyzed by western blotting using primary antibodies against AR (Millipore Cat# 06-680, RRID:AB_310214), AR-V7 (RevMAb Biosciences Cat# 31-1109-00, RRID:AB_2716436), GAPDH (Cell Signaling Technology Cat# 2118, RRID:AB_561053) and Actin (Sigma–Aldrich Cat# A5441, RRID:AB_476744). pLenti4/TO/Flag-AR or pLenti4/TO/Flag-TC-AR plasmid was co-transfected with HA-ubiquitin plasmid into 293T cells. 24 h after transfection, the cells were treated with 10 μM of the PROTAC compounds for 16 h, followed by 4-h treatment of 5 μM MG132. The cells were lysed with lysis buffer (50 mM Tris–HCl pH7.5, 150 mM NaCl, 0. 5% Triton X-100, 10% glycerol, 1 mM EDTA plus protease inhibitors) containing 1 ng/mL of N-ethylmaleimide, followed by immunoprecipitation with anti-Flag M2 (Sigma–Aldrich Cat# F3165, RRID:AB_259529) antibody. The ubiquitinated AR was then detected by western blotting using anti-HA (Sigma–Aldrich Cat# H3663, RRID:AB_262051) antibody.
(§2) Fig. 1 PROTAC-based AR degraders ITRI-90, ITRI-125 and ITRI-126 reduce AR and AR-V7 proteins in prostate cancer cell lines. (a) Chemical structure of the PROTAC AR degraders. (b) Representative western blots of AR protein levels in LNCaP, CWR22Rv1 and VCaP cells treated with the PROTAC degraders for 24 h. AR was detected by N-terminal antibody which also detects C-terminal truncated AR-V(ΔLBD) in CWR22Rv1 cells. AR-V7 specific antibody was used for AR-V7 detection. 4%–12% gradient gel was used to separate different species of AR-V(ΔLBD) near 75 kDa in CWR22Rv1 cell lysates. DC50 indicating the concentration required to achieve 50% degradation, was calculated based on normalized full-length AR and AR-V7 band intensity. Dmax is the maximum degradation achieved at 20 μM compound treatment. TEXT PRINTED IN THE PICTURE: (a) ITRI-90: AR DC50 (μM) LNCaP: 2.12 ± 0.93; AR DC50 (μM) CWR22Rv1: 5.73 ± 2.28; AR DC50 (μM) VCaP: 8.67 ± 4.87; AR-V7 DC50 (μM) CWR22Rv1: 4.72 ± 2.52; AR-V7 DC50 (μM) VCaP: 0.29 ± 0.15; AR Dmax (%) LNCaP: 88; AR Dmax (%) CWR22Rv1: 98; AR Dmax (%) VCaP: 90; AR-V7 Dmax (%) CWR22Rv1: 100; AR-V7 Dmax (%) VCaP: 63 | (a) ITRI-125: AR DC50 (μM) LNCaP: 6.10 ± 4.43; AR DC50 (μM) CWR22Rv1: 6.64 ± 1.87; AR DC50 (μM) VCaP: 9.05 ± 3.75; AR-V7 DC50 (μM) CWR22Rv1: 1.89 ± 1.06; AR-V7 DC50 (μM) VCaP: 0.52 ± 0.37; AR Dmax (%) LNCaP: 71; AR Dmax (%) CWR22Rv1: 96; AR Dmax (%) VCaP: 85; AR-V7 Dmax (%) CWR22Rv1: 99; AR-V7 Dmax (%) VCaP: 67 | (a) ITRI-126: AR DC50 (μM) LNCaP: 3.41 ± 3.13; AR DC50 (μM) CWR22Rv1: 0.11 ± 0.02; AR DC50 (μM) VCaP: 0.851 ± 0.43; AR-V7 DC50 (μM) CWR22Rv1: 0.011 ± 0.003; AR-V7 DC50 (μM) VCaP: 0.43 ± 0.19; AR Dmax (%) LNCaP: 99; AR Dmax (%) CWR22Rv1: 74; AR Dmax (%) VCaP: 94; AR-V7 Dmax (%) CWR22Rv1: 91; AR-V7 Dmax (%) VCaP: 82

full-length AR [2] = test: as above; format: cell-based, human; conditions: for sustainability of AR and AR-V(ΔLBD) degradation after drug washout: 10 μM for 24 h then washout, LNCaP, CWR22Rv1, VCaP; for AR degradation: CWR22Rv1 cells (Table S1); for DC50: 24 h treatment; for AR Dmax CWR22Rv1 / AR Dmax VCaP: maximum degradation at 20 μM
Experimental: as §1, §2

[3] = CWR22Rv1 cells, read-out: AR DC50 CWR22Rv1
[4] = VCaP cells, read-out: AR DC50 VCaP

SMILES	DC50 (full-length AR [1]) [µM]	Dmax at 20 µM (full-length AR [1]) [%]	sustainability of AR and AR-V(ΔLBD) degradation after drug washout (full-length AR [2])	AR degradation (full-length AR [2]) [%]	DC50 (full-length AR [2]; [3]) [µM]	AR Dmax CWR22Rv1 (full-length AR [2]; CWR22Rv1 cells) [%]	DC50 (full-length AR [2]; [4]) [µM]	AR Dmax VCaP (full-length AR [2]; VCaP cells) [%]
Cc1ncsc1-c1ccc(CNC(=O)[C@@H]2C[C@H](O)CN2C(=O)[C@@H](NC(=O)COCCCCCCOc2ccc(C3CCN(C4=Nn5c(nnc5C(F)(F)F)CC4)CC3)cc2)C(C)(C)C)cc1 [ITRI-125, (2S,4S)-1-((S)-3,3-dimethyl-2-(2-(6-(4-(1-(3-(trifluoromethyl)-7,8-dihydro-[1,2,4]triazolo[4,3-b]pyridazin-6-yl)piperidin-4-yl)phenoxy)hexyloxy)acetamido)butanoyl)-4-hydroxy-N-(4-(4-methylthiazol-5-yl)benzyl)pyrrolidine-2-carboxamide]	6.1 ± 4.43	71	lost the degrading effects on both full-length and truncated AR within 8 h post drug removal	92.53	6.64 ± 1.87	96	9.05 ± 3.75	85
O=C1CCC(N2Cc3c(NC(=O)COCCCCOc4ccc(C5CCN(C6=Nn7c(nnc7C(F)(F)F)CC6)CC5)cc4)cccc3C2=O)C(=O)N1 (centres unmarked) [ITRI-126, N-(2-(2,6-dioxopiperidin-3-yl)-1-oxoisoindolin-4-yl)-2-(4-(4-(1-(3-(trifluoromethyl)-7,8-dihydro-[1,2,4]triazolo[4,3-b]pyridazin-6-yl)piperidin-4-yl)phenoxy)butoxy)acetamide]	3.41 ± 3.13	99	sustain low protein levels up to 24 h after drug washout		0.11 ± 0.02	74	0.851 ± 0.43	94
Cc1ncsc1-c1ccc(CNC(=O)[C@@H]2C[C@H](O)CN2C(=O)[C@@H](NC(=O)COCCCCOc2ccc(C3CCN(C4=Nn5c(nnc5C(F)(F)F)CC4)CC3)cc2)C(C)(C)C)cc1 [ITRI-90, (2S,4S)-1-((S)-3,3-dimethyl-2-(2-(4-(4-(1-(3-(trifluoromethyl)-7,8-dihydro-[1,2,4]triazolo[4,3-b]pyridazin-6-yl)piperidin-4-yl)phenoxy)butoxy)acetamido)butanoyl)-4-hydroxy-N-(4-(4-methylthiazol-5-yl)benzyl)pyrrolidine-2-carboxamide]	2.12 ± 0.93	88	sustain low protein levels up to 24 h after drug washout	98.28	5.73 ± 2.28	98	8.67 ± 4.87	90
